Target: T1, GSK3β (Homo sapiens, UniProt P49841)
T1 construct: made in house; host or cells: Sf21 insect cells
Assay: Assay for inhibitory activity against GSK3β (Kinase-Glo luminescence)
Format: biochemical
Conditions: 750 nM ATP, 4 μM GSY-2 phosphopeptide; for inhibition at 25 µM: compound at 25 μM; for inhibition at 25 µM / inhibition at 50 µM: vs control without compound; for inhibition at 50 µM: compound at 50 μM
Procedure: The compounds of the present invention were assayed for inhibitory activity against GSK3β. The GSK-3 is implicated in the incidence of various diseases including diabetes, Alzheimer's disease, CNS disorders and hypertrophic cardiomyopathy.
GSK3β was purified from Sf21 cells using a procedure described in the literature, R. Dajani et. al. (Cell 2001, […], 721-732). GSK3β activity was examined at room temperature in 50 μl of 40 mM Tris-HCl, pH7.4, 10 mM MgCl2, 1 mM DTT, 0.2 mM EDTA, 200 μM NaVO3, 10 mM β-glyceralphosphate, 1 mM EGTA buffer containing 750 nM ATP and 4 μM GSY-2 phosphopeptide (substrate). After incubation at room temperature for […], Kinase-Glo reagent (Promega) was added to reaction mixtures of Preparation Examples 1-1 to 1-12, 1-80 to 1-90, and 1-92. The well plates were incubated at room temperature for […] to stabilize luminescent signals. The luminescent intensity, reflecting the quantity of ATP, was recorded using a counter (Wallac Victor 1420 multilabel counter) and used to determine % inhibition of GSK3β as compared to ATP level in the control to which none of the compounds of the present invention were added.

T1 sequence (P49841 whole entry): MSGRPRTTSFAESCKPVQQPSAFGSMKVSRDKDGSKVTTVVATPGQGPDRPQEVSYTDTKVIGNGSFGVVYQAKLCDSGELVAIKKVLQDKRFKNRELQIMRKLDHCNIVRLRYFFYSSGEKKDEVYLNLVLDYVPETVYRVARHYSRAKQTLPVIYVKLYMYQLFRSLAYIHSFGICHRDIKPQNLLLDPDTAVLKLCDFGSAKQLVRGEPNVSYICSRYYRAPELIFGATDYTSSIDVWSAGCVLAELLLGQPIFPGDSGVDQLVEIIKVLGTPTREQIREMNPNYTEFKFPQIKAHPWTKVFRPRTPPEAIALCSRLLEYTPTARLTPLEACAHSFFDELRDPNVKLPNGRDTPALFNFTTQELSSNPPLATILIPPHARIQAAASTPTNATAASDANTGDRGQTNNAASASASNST

Row | IC50 [µM] | inhibition at 25 µM [%] | inhibition at 50 µM [%] | Compound
1 | 10.2 | 80.8 | 96.3 | O=C(Nc1n[nH]c2nc(-c3cnn4ccccc34)c(F)cc12)C1CC1 [Example 1-1]
2 | 14.9 | 76.9 | 95.3 | O=C(Nc1n[nH]c2nc(-c3cnn4ccccc34)c(F)cc12)C1CCCC1 [Example 1-2]
3 | – | 11.6 | 53.1 | Cc1cccc2c(-c3nc4[nH]nc(NC(=O)C5CC5)c4cc3F)cnn12 [Example 1-3]
4 | – | 63.8 | 82.1 | Cc1cccc2c(-c3nc4[nH]nc(NC(=O)C5CCCC5)c4cc3F)cnn12 [Example 1-4]
5 | – | 35.1 | 78 | Cc1cccc2c(-c3nc4[nH]nc(NC(=O)c5cccc(C#N)c5)c4cc3F)cnn12 [Example 1-5]
6 | – | 48.3 | 70.8 | Cc1cccc2c(-c3nc4[nH]nc(NC(=O)Cc5ccc(F)cc5)c4cc3F)cnn12 [Example 1-6]
7 | 13.3 | 71.2 | 92.3 | Cc1cccc2c(-c3nc4[nH]nc(NC(=O)c5ccc(N(C)C)cc5)c4cc3F)cnn12 [Example 1-7]
8 | – | 37.7 | 61.6 | COc1ccn2ncc(-c3nc4[nH]nc(NC(=O)C5CC5)c4cc3F)c2c1 [Example 1-8]
9 | 20 | 58.2 | 94.6 | COc1ccn2ncc(-c3nc4[nH]nc(NC(=O)Cc5ccc(F)cc5)c4cc3F)c2c1 [Example 1-9]
10 | 14.4 | 77.4 | 90.7 | O=C(Cc1ccc(F)cc1)Nc1n[nH]c2nc(-c3cnn4ccccc34)c(F)cc12 [Example 1-10]
11 | – | 30 | – | Nc1n[nH]c2nc(-c3cnn4ccccc34)c(F)cc12 [Example 1-11]
12 | – | 87.7 | – | COc1ccn2ncc(-c3nc4[nH]nc(N)c4cc3F)c2c1 [Example 1-12]
13 | – | 19.7 | 37.8 | CC(=O)OCCn1nc(N)c2cc(F)c(-c3cnn4c(C)cccc34)nc21 [Example 1-80]
14 | – | 81.9 | 97.5 | CC(=O)OCCn1nc(NC(=O)c2ccc(F)cc2)c2cc(F)c(-c3cnn4c(C)cccc34)nc21 [Example 1-81]
15 | – | 64.5 | 80.4 | CC(=O)OCCn1nc(N)c2cc(F)c(-c3cnn4ccccc34)nc21 [Example 1-82]
16 | – | 81.2 | 87.2 | COc1ccn2ncc(-c3nc4c(cc3F)c(N)nn4CCOC(C)=O)c2c1 [Example 1-83]
17 | – | 24.4 | 49.5 | CC(=O)OCCn1nc(NC(=O)C2CC2)c2cc(F)c(-c3cnn4ccccc34)nc21 [Example 1-84]
18 | 34.9 | 68.6 | 90.1 | CC(=O)OCCn1nc(NC(=O)C2CCCC2)c2cc(F)c(-c3cnn4ccccc34)nc21 [Example 1-85]
19 | – | 47.9 | 86.5 | O=C(Cc1ccc(F)cc1)Nc1nn(CCO)c2nc(-c3cnn4ccccc34)c(F)cc12 [Example 1-86]
20 | – | 26.7 | – | Nc1nn(CCO)c2nc(-c3cnn4ccccc34)c(F)cc12 [Example 1-87]
21 | – | 23 | – | CC(=O)OCCn1nc(NC(=O)c2ccccc2)c2cc(F)c(-c3cnn4ccccc34)nc21 [Example 1-88]
22 | – | 1.5 | – | O=C(Nc1nn(CCO)c2nc(-c3cnn4ccccc34)c(F)cc12)c1ccccc1 [Example 1-89]
23 | – | 116 | – | COc1ccn2ncc(-c3nc4c(cc3F)c(N)nn4CCO)c2c1 [Example 1-90]
24 | – | 117 | – | COc1ccn2ncc(-c3nc4c(cc3F)c(NC(=O)c3ccccc3)nn4CCO)c2c1 [Example 1-92]
25 | – | 51.6 | 88.6 | Cc1cccc2c(-c3nc4c(cc3F)c(NC(=O)c3ccc(F)cc3)nn4C(=O)c3ccc(F)cc3)cnn12 [Example 1-93]
26 | – | 41.7 | 87.2 | O=C(Nc1nn(C(=O)C2CCCC2)c2nc(-c3cnn4ccccc34)c(F)cc12)C1CCCC1 [Example 1-94]
27 | – | 53.2 | 78.9 | CC(=O)OCCn1nc(NC(=O)Cc2ccc(F)cc2)c2cc(F)c(-c3cnn4ccccc34)nc21 [Example 1-95]
